The text below walks through data of publication PMC8471380 (Molecules, 2021).

Structures are written as SMILES.

In assay [1] the target is T1, MK-801-binding (intrachannel) site of NMDA receptor (Rattus norvegicus, UniProt P35439).
T1 construct: from tissue; host or cells: rat hippocampus membranes
The assay is described as follows: Radioligand binding assay, [3H]MK-801 displacement.
Description: (§3) The effect of the test compounds on radioligand binding to NMDA receptors was evaluated by a modified method, as previously reported [83]. The following two radioligands were used: [^3H] […] A hippocampal membrane preparation for the radioligand binding assay was made as described previously [86, 87]. The obtained membrane pellet was resuspended in a working buffer (5 mM HEPES/4.5 mM Tris, pH 7.6 at 4 °C) in a ratio of 1:5 and stored in liquid nitrogen. The reaction mixture (the final volume was 0.5 mL) contained the working buffer (200 μL), a 50 nM radioligand solution (50 μL) and the membrane suspension (250 μL). The nonspecific binding was evaluated in the presence of 1 mM of the unlabeled ligand (50 μL).
(§4) For the binding assay, the reaction mixture was incubated at room temperature for 2 h. After the incubation, the samples were filtered through GF/B glass fiber filters (Whatman), washed with the working buffer, dried and transferred to scintillation vials. Then the scintillation fluid (5 mL), which is composed of diphenyloxazole (PPO) (4 g) and bis(5-phenyl-2-oxazolyl)benzene (POPOP) (0.2 g) in toluene (1 L) were added to the vials.
(§5) The effect of the test compounds on the binding of [^3H] […] The values of Ki were calculated according to a previously described method [88].

Assay [2] deals with T2, ifenprodil-binding site of NMDA receptor (NR2B subunit) (Rattus norvegicus, UniProt P35439+Q00960).
T2 construct: from tissue; host or cells: rat hippocampus membranes
The assay can be described thus: Radioligand binding assay, [3H]ifenprodil displacement.
Description: as §3, §4, §5

The target of assay [3] is T3, human erythrocyte AChE (Homo sapiens, UniProt P22303).
T3 construct: commercial human erythrocyte AChE; purchased Sigma; host or cells: human erythrocytes
The assay is described as follows: biochemical. The settings on record: mean ± SEM, n = 3; for inhibition at 20 µM: read-out: % of inhibition of AChE with 20 µM concentration of the compound, 20 µM compound.

In assay [4] the target is T4, equine serum BChE (Equus caballus, UniProt P81908).
T4 construct: equine serum BChE; purchased Sigma; host or cells: equine serum
The assay is described as follows: biochemical. As to conditions: 5 min incubation; mean ± SEM, n = 3.
Description: (§6) Reagents blanks consisted of reaction mixtures without substrates. […] Final enzyme and substrate concentrations were 0.02 unit/mL and 1 mM, respectively. Assays were carried out with a blank containing all constituents except porcine CES to assess non-enzymatic hydrolysis. The measurements were performed on a FLUOstar OPTIMA multifunctional microplate reader (BMG LABTECH, Ortenberg, Germany). The compounds were dissolved in DMSO. The incubation mixture contained 2% (v/v) of the solvent. […] The sample of the appropriate enzyme was incubated with the test compound for 5 min, and then the residual enzymatic activity was determined. Each experiment was performed in triplicate. […] Each experiment was performed in triplicate. The IC50 values were calculated with Origin 6.1 software.

Another assay addresses T5, porcine liver CES (Sus scrofa, UniProt Q29550).
T5 sequence (Q29550 19-566): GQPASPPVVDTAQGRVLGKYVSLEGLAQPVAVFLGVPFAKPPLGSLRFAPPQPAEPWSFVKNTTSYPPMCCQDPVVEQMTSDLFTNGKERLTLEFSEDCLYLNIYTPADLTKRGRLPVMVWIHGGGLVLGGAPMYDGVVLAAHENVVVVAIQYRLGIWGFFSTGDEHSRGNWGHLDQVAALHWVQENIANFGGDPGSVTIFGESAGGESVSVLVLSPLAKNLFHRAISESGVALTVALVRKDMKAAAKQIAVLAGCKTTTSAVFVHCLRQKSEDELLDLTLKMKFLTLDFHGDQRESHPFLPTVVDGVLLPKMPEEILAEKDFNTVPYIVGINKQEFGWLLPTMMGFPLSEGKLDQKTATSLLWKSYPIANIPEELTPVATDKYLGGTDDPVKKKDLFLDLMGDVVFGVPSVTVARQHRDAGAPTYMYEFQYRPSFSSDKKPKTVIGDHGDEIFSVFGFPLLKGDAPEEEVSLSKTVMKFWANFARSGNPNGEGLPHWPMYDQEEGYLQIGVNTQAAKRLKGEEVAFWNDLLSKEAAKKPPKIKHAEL
The assay can be described thus: CES inhibition, 4-nitrophenyl acetate hydrolysis. The settings on record: read-out: % of inhibition of CES with 20 µM concentration of the compound. The format is biochemical.

A further assay deals with T6, PAS of EeAChE (Electrophorus electricus, UniProt O42275).
T6 construct: AChE from Electrophorus electricus (EeAChE, type VI-S, lyophilized powder); purchased Sigma-Aldrich type VI-S; host or cells: Electrophorus electricus tissue
The format is binding. As to conditions: 20 µM compound; 7 µM EeAChE, 8 µM propidium iodide; mean ± SEM, n = 3.

For assay [5], the target named is T3, human erythrocyte AChE. The assay is described as follows: Kinetic study of AChE inhibition (Lineweaver-Burk). The class given is biochemical. On the procedure:
(§1) Kinetic studies were performed using commercial human erythrocyte AChE, equine serum BChE and porcine liver CES (Sigma, USA). The AChE and BChE activity was evaluated by Ellman’s method (λ = 412 nm) using 1 mM acetylthiocholine and 1 mM butyrylthiocholine (Sigma, St. Louis, MO, USA), respectively, as the substrate in 100 mM phosphate buffer, pH 7.5, 0.33 mM DTNB, 0.02 unit/mL of AChE or BChE at 25 °C as described in detail in [71]. Reagents blanks consisted of reaction mixtures without substrates. The CES activity was measured spectrophotometrically based on the release of 4-nitrophenol (λ = 405 nm) in the presence of 1 mM 4-nitrophenyl acetate as the substrate in 100 mM phosphate buffer, pH 8.0, at 25 °C as described in [71]. Final enzyme and substrate concentrations were 0.02 unit/mL and 1 mM, respectively. Assays were carried out with a blank containing all constituents except porcine CES to assess non-enzymatic hydrolysis. The measurements were performed on a FLUOstar OPTIMA multifunctional microplate reader (BMG LABTECH, Ortenberg, Germany). The compounds were dissolved in DMSO. The incubation mixture contained 2% (v/v) of the solvent. […] The sample of the appropriate enzyme was incubated with the test compound for 5 min, and then the residual enzymatic activity was determined. Each experiment was performed in triplicate. […]. […] Each experiment was performed in triplicate. The IC50 values were calculated with Origin 6.1 software.
(§2) The mechanisms of AChE and BChE inhibition were assessed by a thorough analysis of enzyme kinetics. The residual activity was determined after a 5-min incubation at 25 °C (for temperature equilibration) with three increasing concentrations of the inhibitor and six decreasing substrate concentrations.

Assay [6] addresses T4, equine serum BChE. The assay is described as follows: Kinetic study of BChE inhibition (Lineweaver-Burk). The class given is biochemical. On the procedure:
as §1, §2

The subject of assay [7] is isolated rat liver mitochondria. The assay can be described thus: Ca2+-induced mitochondrial swelling (MPT pore opening). The class given is biochemical. The settings on record: 30 µM compound; 12.5 µM Ca2+; 10 mM glutamate, 2 mM malate, 10 mM succinate; percentage relative to the reference compound. On the procedure:
Experiments were performed using outbred male rats weighing 200–220 g. The animals were housed under standard vivarium conditions in a normal day/night cycle and had ad libitum access to water and food. The procedure of rat euthanasia using carbon dioxide (CO2) inhalation for mitochondria preparation is in compliance with the Guidelines for Animal Experiments, which were approved by the local bioethics committee of the IPAC RAS.
Rat liver mitochondria were isolated by conventional differential centrifugation. Membrane potential of rat liver mitochondria was measured using the potential-sensitive fluorescent probe Safranine A on a Victor 3 multilabel plate reader (Perkin Elmer, Waltham, MA, USA). The fluorescence was recorded at λex = 485 nm and λem = 590 nm. Mitochondrial swelling was measured by spectrophotometry in 96-well clear bottom plates on a Victor 3 microplate reader (Perkin Elmer, Waltham, MA, USA) at 620 nm; CaCl2 was added to induce mitochondrial swelling (MPT opening).

In assay [8] the test system is tubulin and microtubule-associated proteins (Tb+MAP). The assay can be described thus: GTP-dependent Tb+MAP polymerization. The class given is biochemical, mouse. The settings on record: 100 µM compound; 0.1 mM GTP, 37 °C. The source says:
A crude fraction of tubulin and microtubule-associated proteins (Tb+MAP) was isolated from mouse brain tissue by a polymerization–depolymerization method. The procedure of mouse euthanasia using cervical dislocation for Tb+MAP preparation is in compliance with the Guidelines for Animal Experiments, which were approved by the local bioethics committee of the IPAC RAS. The freshly dissected brain was immediately placed on ice, cleared of meninges and surface blood vessels, and washed with cold buffer A (50 mM Tris-HCl, pH 6.9 at 4 °C, 2 mM EGTA). The extracted brain tissue was homogenized under ice cooling in the same buffer using a Potter S homogenizer (Sartorius). The resulting homogenate was centrifuged at 10,000× g for 30 min on an Avanti 25 centrifuge (Beckman) using a JA-14 rotor for the precipitation of non-ruptured cells. The precipitate was discarded, and the supernatant was again centrifuged at 100,000× g for 60 min at 4 °C on an Optima MAX XP centrifuge (Beckman) using a MLA-50 rotor. The precipitate was again discarded. The protein concentration in the supernatant was determined by the Bradford assay using the Bio-Rad Protein Assay kit (Bio-Rad, Hercules, CA, USA) according to manufacturer’s instructions. The resulting supernatant was a cytosolic fraction enriched in microtubular proteins (Tb and MAP).
The Tb+MAP preparation was centrifuged at 5000× g for 10 min at 4 °C immediately before polymerization in order to remove denatured and aggregated protein molecules by precipitation. The Tb+MAP polymerization was performed at 37 °C in buffer A in the presence of 0.1 mM GTP after addition of 100 µM of test compound or the same volume of vehicle (DMSO). The protein concentration in the sample was 0.2 mg/mL. The polymerization kinetics was monitored on a Victor 3 or EnVision microplate reader (Perkin Elmer, USA) at 355 nm and the stabilized rate of polymerization after the first wave was measured (dA355/dt).

Where [9] appears, read: Lineweaver-Burk double-reciprocal plots.

T4 sequence (P81908 whole entry): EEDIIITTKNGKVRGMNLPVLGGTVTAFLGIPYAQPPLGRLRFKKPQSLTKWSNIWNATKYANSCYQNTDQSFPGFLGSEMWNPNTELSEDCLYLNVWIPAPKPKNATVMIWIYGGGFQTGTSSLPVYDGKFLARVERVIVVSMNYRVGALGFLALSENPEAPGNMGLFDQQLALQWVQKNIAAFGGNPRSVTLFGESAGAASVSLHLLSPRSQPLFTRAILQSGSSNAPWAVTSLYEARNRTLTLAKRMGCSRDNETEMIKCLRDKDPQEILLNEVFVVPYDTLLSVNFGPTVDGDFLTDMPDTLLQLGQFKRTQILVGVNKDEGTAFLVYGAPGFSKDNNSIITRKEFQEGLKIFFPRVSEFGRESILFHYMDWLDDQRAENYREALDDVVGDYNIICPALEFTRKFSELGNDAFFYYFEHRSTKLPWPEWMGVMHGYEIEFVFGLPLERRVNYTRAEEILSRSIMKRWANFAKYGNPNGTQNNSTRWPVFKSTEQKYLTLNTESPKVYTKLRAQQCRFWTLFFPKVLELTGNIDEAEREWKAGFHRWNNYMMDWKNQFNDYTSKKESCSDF
T2 sequence (Q00960 27-1482, other chains not shown): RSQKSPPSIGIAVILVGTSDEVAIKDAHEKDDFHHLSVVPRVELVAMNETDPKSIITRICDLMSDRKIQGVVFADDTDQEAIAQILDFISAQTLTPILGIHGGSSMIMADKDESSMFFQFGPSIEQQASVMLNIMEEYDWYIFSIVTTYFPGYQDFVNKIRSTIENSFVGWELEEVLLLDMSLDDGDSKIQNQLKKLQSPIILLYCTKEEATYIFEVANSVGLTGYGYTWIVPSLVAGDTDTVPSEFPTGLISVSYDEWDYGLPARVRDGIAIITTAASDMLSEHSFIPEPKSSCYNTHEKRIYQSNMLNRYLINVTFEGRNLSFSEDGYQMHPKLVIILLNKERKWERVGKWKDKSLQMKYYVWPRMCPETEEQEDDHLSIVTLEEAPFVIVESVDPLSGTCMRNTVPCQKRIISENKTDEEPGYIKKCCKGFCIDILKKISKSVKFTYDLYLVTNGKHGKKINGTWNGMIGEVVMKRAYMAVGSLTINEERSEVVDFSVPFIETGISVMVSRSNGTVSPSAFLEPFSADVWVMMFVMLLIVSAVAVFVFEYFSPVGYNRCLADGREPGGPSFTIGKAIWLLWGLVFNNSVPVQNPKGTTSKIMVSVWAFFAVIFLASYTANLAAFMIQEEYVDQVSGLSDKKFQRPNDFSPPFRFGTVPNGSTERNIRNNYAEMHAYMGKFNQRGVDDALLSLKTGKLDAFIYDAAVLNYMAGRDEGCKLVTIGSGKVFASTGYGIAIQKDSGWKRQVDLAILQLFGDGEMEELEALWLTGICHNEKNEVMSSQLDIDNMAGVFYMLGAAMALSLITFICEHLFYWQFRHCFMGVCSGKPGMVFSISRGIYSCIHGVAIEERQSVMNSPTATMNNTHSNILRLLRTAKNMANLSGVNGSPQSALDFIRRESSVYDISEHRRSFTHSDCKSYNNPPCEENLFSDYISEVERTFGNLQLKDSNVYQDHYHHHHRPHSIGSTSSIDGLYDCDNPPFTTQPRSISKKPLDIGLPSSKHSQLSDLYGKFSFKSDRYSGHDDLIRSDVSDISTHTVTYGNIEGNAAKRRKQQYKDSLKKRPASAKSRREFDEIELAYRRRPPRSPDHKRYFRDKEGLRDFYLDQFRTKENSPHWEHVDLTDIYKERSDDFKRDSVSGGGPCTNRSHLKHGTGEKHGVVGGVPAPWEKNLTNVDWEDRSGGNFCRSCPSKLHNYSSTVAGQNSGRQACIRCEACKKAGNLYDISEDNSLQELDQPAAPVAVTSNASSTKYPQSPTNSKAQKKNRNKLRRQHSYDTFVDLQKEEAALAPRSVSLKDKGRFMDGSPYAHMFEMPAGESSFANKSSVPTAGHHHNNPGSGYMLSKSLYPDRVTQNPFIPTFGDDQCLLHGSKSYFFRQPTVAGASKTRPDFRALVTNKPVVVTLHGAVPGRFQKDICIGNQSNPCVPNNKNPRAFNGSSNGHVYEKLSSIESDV
T6 sequence (O42275 24-633): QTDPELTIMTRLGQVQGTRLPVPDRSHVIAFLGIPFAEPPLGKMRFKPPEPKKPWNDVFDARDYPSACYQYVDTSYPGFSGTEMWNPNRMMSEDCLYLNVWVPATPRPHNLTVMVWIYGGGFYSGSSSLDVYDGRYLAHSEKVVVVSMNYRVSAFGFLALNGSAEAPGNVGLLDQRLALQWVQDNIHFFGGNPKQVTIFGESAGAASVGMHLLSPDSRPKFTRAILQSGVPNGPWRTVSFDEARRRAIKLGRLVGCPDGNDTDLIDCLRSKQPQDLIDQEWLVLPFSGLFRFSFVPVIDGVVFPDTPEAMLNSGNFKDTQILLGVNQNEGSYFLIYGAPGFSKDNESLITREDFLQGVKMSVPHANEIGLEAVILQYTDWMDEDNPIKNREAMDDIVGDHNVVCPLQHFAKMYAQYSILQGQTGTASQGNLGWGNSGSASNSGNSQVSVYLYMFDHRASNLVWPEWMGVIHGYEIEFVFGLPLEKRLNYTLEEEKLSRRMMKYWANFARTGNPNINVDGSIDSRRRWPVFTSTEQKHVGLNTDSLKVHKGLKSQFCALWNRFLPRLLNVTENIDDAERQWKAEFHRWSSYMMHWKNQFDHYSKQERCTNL
T3 sequence (P22303 32-617 isoform P22303-2 limits assumed): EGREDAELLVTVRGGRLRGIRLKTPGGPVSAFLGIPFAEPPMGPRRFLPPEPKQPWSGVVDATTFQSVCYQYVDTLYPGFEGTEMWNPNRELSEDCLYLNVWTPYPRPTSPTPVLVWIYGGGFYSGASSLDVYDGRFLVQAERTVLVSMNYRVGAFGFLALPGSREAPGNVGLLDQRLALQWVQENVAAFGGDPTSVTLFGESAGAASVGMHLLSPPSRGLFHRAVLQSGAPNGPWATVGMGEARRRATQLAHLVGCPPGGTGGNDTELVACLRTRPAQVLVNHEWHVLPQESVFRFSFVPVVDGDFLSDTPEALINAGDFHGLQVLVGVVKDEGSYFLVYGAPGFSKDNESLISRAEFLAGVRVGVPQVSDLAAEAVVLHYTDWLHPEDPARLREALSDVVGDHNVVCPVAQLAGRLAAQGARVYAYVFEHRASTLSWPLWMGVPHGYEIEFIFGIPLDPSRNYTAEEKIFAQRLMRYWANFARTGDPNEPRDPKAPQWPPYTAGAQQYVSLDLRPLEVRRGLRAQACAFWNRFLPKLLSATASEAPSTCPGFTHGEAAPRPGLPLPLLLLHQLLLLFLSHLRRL
Description for PAS of EeAChE: The compounds were evaluated as potential inhibitors of proaggregation activity of AChE by measuring the displacement of propidium iodide from the PAS of the enzyme [53] using a fluorescence method [28]. AChE from Electrophorus electricus (EeAChE, type VI-S, lyophilized powder, Sigma-Aldrich, St. Louis, MO, USA) was used for consistency with our previous studies [8, 13, 63, 74]. The fluorescence intensity of propidium iodide bound to AChE increases several-fold. A decrease in the fluorescence intensity in the presence of the test compounds is indicative of their ability to bind to the AChE PAS and, correspondingly, to inhibit β-amyloid aggregation.
EeAChE (7 µM) was incubated with 20 µM of the test compound in 1 mM Tris-HCl buffer, pH 8.0, at 25 °C for 15 min. Then a solution of propidium iodide was added (final concentration 8 µM), the mixture was incubated for 15 min, and the fluorescence spectrum was recorded (excitation at 530 nm and emission at 600 nm). […] The blank contained propidium iodide at the same concentration in 1 mM Tris-HCl buffer, pH 8.0 at 25 °C. The measurements were performed in triplicate on a FLUOstar OPTIMA multifunctional microplate reader.
The degree of displacement of propidium iodide from the PAS of AChE (% displacement) was calculated by the equation:% displacement = 100 − (IFAChE + Propidium + inhibitor/IFAChE + Propidium) × 100, where IFAChE + Propidium is the fluorescence intensity of propidium iodide bound to EeAChE in the absence of the test compound (taken as 100%), and IFAChE + Propidium + inhibitor is the fluorescence intensity of propidium iodide bound to EeAChE in the presence of the test compound.
Description for porcine liver CES: as §6

For `CN1CCc2c(c3cc(F)ccc3n2CCNC23CC4CC(C)(CC(C)(C4)C2)C3)C1.Cl.Cl` [Compound 4c, N-(2-(8-Fluoro-2-methyl-3,4-dihydro-1H-pyrido[4,3-b]indol-5(2H)-yl)ethyl)-3,5-dimethyladamantane-1-amine dihydrochloride], the Ki came out at 4.7 ± 0.5 µM in assay [1]; 3.1 ± 0.3 µM in assay [2]; 13.7 ± 0.02 µM on human erythrocyte AChE [5] (Lineweaver-Burk analysis, read-out: Ki (competitive component), AChE); 0.23 ± 0.02 µM at equine serum BChE [6] (Lineweaver-Burk analysis, read-out: Ki (competitive component), BChE). Moreover, the half-inhibitory concentration (IC50) at human erythrocyte AChE [3] (5 min incubation) was 39.7 ± 3.2 µM; against equine serum BChE [4], 0.729 ± 0.011 µM. The inhibition at 20 µM on porcine liver CES amounted to 6.9 ± 0.4%. Further, at PAS of EeAChE, the “% of Displacement of Propidium Iodide from the PAS of EeAChE” value (“% of Displacement of Propidium Iodide” below) stood at 13.1 ± 1.0%. The “αKi (non-competitive component), AChE” value at human erythrocyte AChE [5] (Lineweaver-Burk analysis) worked out at 45.5 ± 3.8 µM. Further, the “Type of AChE inhibition” value at human erythrocyte AChE [5] (setting [9]) is given as “mixed type of inhibition”. In addition, the “αKi (non-competitive component), BChE” value on equine serum BChE [6] (Lineweaver-Burk analysis) is given as 0.70 ± 0.01 µM. Further, the “Type of BChE inhibition” value on equine serum BChE [6] (setting [9]) is listed as “mixed type of inhibition”. Also, in [7], the “Rate of Ca2+-Induced Mitochondrial Swelling (dA620/dt)” value (shortened to “Rate … (dA620/dt)”) is 31 ± 10%. For the same compound, in [8], the “Rate of Tb+MAP Polymerization (dA355/dt)” value is recorded as 166 ± 11%.

For the compound `Cc1ccc2c(c1)c1c(n2CC(=O)NC23CC4CC(C)(CC(C)(C4)C2)C3)CCN(C)C1.Cl` [Compound 8b, 2-(2,8-Dimethyl-3,4-dihydro-1H-pyrido[4,3-b]indol-5(2H)-yl)-N-(3,5-dimethyladamantan-1-yl)acetamide hydrochloride], the Ki in [1] worked out at 55.1 ± 5.1 µM; in [2], 89.7 ± 8.7 µM. Moreover, the inhibition at 20 µM on human erythrocyte AChE [3] is 17.7 ± 1.4%; on porcine liver CES it was 6.4 ± 0.5%. This compound displayed an IC50 against equine serum BChE [4] of 33.7 ± 3.5 µM. Also, the “% of Displacement of Propidium Iodide” value at PAS of EeAChE turned out to be 2.8 ± 0.2%. Moreover, the “Rate … (dA620/dt)” value in assay [7] is reported as 87 ± 33%. Further, in [8], the “Rate of Tb+MAP Polymerization (dA355/dt)” value was found to be 314 ± 46%.

For the compound `CN1CCc2c(c3ccccc3n2CC(=O)NC23CC4CC(CC(C4)C2)C3)C1.Cl` [Compound 8d, N-(Adamantan-1-yl)-2-(2-methyl-3,4-dihydro-1H-pyrido[4,3-b]indol-5(2H)-yl)acetamide hydrochloride], the Ki was found to be 49.5 ± 4.5 µM in assay [1] and 79.1 ± 7.1 µM in assay [2]. Also, the inhibition at 20 µM was found to be 5.4 ± 1% on human erythrocyte AChE [3] and 8.8 ± 1.2% at porcine liver CES. Also, the half-inhibitory concentration (IC50) against equine serum BChE [4] is 26.5 ± 0.4 µM. Moreover, the “% of Displacement of Propidium Iodide” value on PAS of EeAChE came out at 1.4 ± 0.2%. In addition, in [7], the “Rate … (dA620/dt)” value was 45 ± 17%. Further, in [8], the “Rate of Tb+MAP Polymerization (dA355/dt)” value was 128 ± 15%.

For `Cc1ccc2c(c1)c1c(n2CC(=O)NC23CC4CC(CC(C4)C2)C3)CCN(C)C1.Cl` [Compound 8e, N-(Adamantan-1-yl)-2-(2,8-dimethyl-3,4-dihydro-1H-pyrido[4,3-b]indol-5(2H)-yl)acetamide hydrochloride], the Ki came out at 72.7 ± 6.6 µM in [1] and 105 ± 10 µM in assay [2]. For the same compound, the inhibition at 20 µM at human erythrocyte AChE [3] is 13.5 ± 0.9%; at porcine liver CES, 9.9 ± 1.5%. At equine serum BChE [4], this compound displayed a 50% inhibitory concentration (IC50) of 43.2 ± 2.9 µM. The “% of Displacement of Propidium Iodide” value at PAS of EeAChE is given as 1.2 ± 0.1%. Further, the “Rate … (dA620/dt)” value in assay [7] was 49 ± 12%. In assay [8], the “Rate of Tb+MAP Polymerization (dA355/dt)” value is given as 133 ± 28%.

As usually defined, the Ki is a dissociation constant, usually derived from enzyme kinetics or from competition with a known ligand. As usually defined, the IC50 is the concentration that gives 50% inhibition. A lower IC50 goes with inhibition by little substance.
